Key:
[1] = biological target: T1, HER2 wildtype (WT) protein (Homo sapiens, UniProt P04626); assay: HER2 signaling (pHER2 Tyr1248/total HER2 MSD) in BT474 cells; format: cell-based; details: 1.5 hr compound, 1% FBS
T1 construct: BT474 and N87 cell lines which endogenously overexpress the HER2 wildtype (WT) protein; endogenous in cells; host or cells: BT474, N87
Description: In addition to the engineered cell lines, the following cell lines were used: BT474 (human breast carcinoma), N87 (human gastric carcinoma), NCI-H1781 (human lung adenocarcinoma), and A431 (human epidermoid carcinoma); all cell lines were obtained from the American Type Culture Collection (ATCC, Manassas, VA). NCI-H1781 were grown in complete RPMI 1640 (Life Technologies, Carlsbad, CA) supplemented with 15% fetal bovine serum (FBS, Life Technologies, Carlsbad, CA) and 1% Penicillin-Streptomycin (P/S, Life Technologies, Carlsbad, CA). N87 cells were grown in complete RPMI 1640 supplemented with 10% FBS and 1% P/S. BT474 and A431 cells were grown in DMEM (Life Technologies, Carlsbad, CA) supplemented with 10% FBS and 1% P/S. All cells were maintained and propagated in a humidified 5% CO2 incubator at 37° C.
HER2 signaling was assessed in BT474 and N87 cell lines which endogenously overexpress the HER2 wildtype (WT) protein, in NCI-H1781 cells which endogenously expresses a HER2 mutant protein containing a VC insertion in the kinase domain (HER2VC or G776delinsVC), and in engineered cell lines transduced to express the Her2 mutant protein containing the YVMA insertion (Hek293-HER2YVMA and BEAS2B-HER2YVMA).
BT474, N87, and NCI-H1781 were plated in 96-well tissue-culture treated plates (Corning Costar, Sigma-Aldrich) in full media and incubated overnight. Hek293-HER2YVMA and BEAS2B-HER2YVMA cells were plated in 96-well poly-D-lysine treated plates (BD Bioscience, San Jose, CA). For treatment with test compounds, the media was replaced with corresponding low serum media (1% FBS) containing test compound at 1.1, 0.37, 0.12, 0.041, 0.014, 0.005, 0.0014, 0.0005 μM or DMSO control (0.1%). Cells were incubated with compound for 1.5 hr at 37° C. After compound treatment, the media was removed and cells were lysed for 30 min on ice in complete MSD lysis buffer (prepared using MSD base lysis buffer (Meso-Scale Discovery) supplemented with cOmplete, EDTA-free Protease inhibitor cocktail (Roche), Phosphatase Inhibitor Cocktails 2 and 3 (Sigma-Aldrich), and 1 mM PMSF (Sigma-Aldrich)). Lysates were stored at −70° C. until further analysis.
HER2 signaling was evaluated using phospho (Tyr1248)/total ErbB2 whole cell lysate MSD plates (Meso-Scale Discovery, Gaithersburg, MD). The phospho HER2 signal was normalized to total HER2 for each sample; results are reported as % DMSO control. The normalized data was fitted using a sigmoidal curve analysis program (Graph Pad Prism version 6) with variable Hill slope to determine EC50 values.
The HER2 signaling results are provided in Table 4, under columns titled “BT474-pHER2 EC50”, “N87-pHER2 EC50”, and “NCI-H1781-pHER2 EC50”. Hek293-HER2YVMA ins fall under the heading “HEKYVMA-pHER2 EC50”, Ba/F3 HER2YVMA fall under the heading “Ba/F3 YVMA-pHER2 EC50” and BEAS2B-HER2YVMA fall under the heading “BEAS2B YVMA-pHER2 EC50”.

[2] = biological target: HER2YVMA (Homo sapiens, UniProt P04626, INS775YVMA); assay: Enzymatic assay HER2YVMA (method b); format: biochemical; set-up: purchased Viva biotech, Shanghai, China custom purification; details: [HER2YVMA]=5 nM, [ATP]=25 μM, [Peptide 22]=1 μM
Description: A 2× stock solution of HER2 WT (ERBB2 0108-0000-1; ProQinase, Freiburg, Germany) corresponding to method a, was prepared as described below. Alternatively, a 2× stock solution of HER2YVMA (custom purification; Viva biotech, Shanghai, China) corresponding to method b, was prepared as described below. For method c, a 2× stock of EGFR (ERBB1 PR7295B, Thermo Fisher, Carlsbad, CA) was prepared as described below. All 2× solutions were prepared in buffer containing 50 mM HEPES, pH 7.5, 10 mM MnCl2, MgCl2, 0.005% Tween 20, 1 mM TCEP. 25 ul of 2× enzyme solution was added to a Seahorse low volume 384-well polypropylene assay plate (201288-100, Seahorse Bioscience, Chicopee, MA) containing 1 μl of compound serially diluted in 50% DMSO. To initiate the reaction, 25 μl of solution containing 2× final concentration of ATP and ProfilerPro Peptide 22 (760366, Perkin Elmer Hopkinton, MA) was added to each well. The reactions were separated on an LC3000 (Caliper Life Sciences) or a LabChip EZReader (Perkin Elmer) in kinetic mode.
At the conclusion of each assay, the data were exported from the instrument as a .rda file (LC3000) and processed in proprietary software, EZReviewer, which determines the percent of substrate converted to product within a given cycle as (P/P+S)*100 by measuring the amplitude of substrate and product peaks. Cycle time varied with amount of compounds tested between 8 and 12 cycles. Initial velocity (0-3600 s) from each reaction was determined from the slope of a plot of percent conversion at each cycle versus time (seconds). Percent inhibition was determined by dividing the slope of each reaction by the uninhibited control using 100*(1-(x/uninhibited control)). IC50 estimates were obtained by plotting the concentration of inhibitor versus percent inhibition in GraphPad Prism (GraphPad Software, San Diego, CA) using log[inhibitor] versus Response (Variable Slope Model); Y=Min+((Max-Min)/(1+((IC50/x)^Hillslope)))
• a) [HER2 WT]=12.5 nM, [ATP]=25 μM, [Peptide 22]=1 μM (ATP KMapp˜25 μM) • b) [HER2YVMA]=5 nM, [ATP]=25 μM, [Peptide 22]=1 μM (ATP KMapp˜15 μM) • c) [EGFR WT]=2 nM, [ATP]=1 mM, [Peptide 22]=1 μM (ATP KMapp˜25 μM)

T1 sequence (P04626 23-1255): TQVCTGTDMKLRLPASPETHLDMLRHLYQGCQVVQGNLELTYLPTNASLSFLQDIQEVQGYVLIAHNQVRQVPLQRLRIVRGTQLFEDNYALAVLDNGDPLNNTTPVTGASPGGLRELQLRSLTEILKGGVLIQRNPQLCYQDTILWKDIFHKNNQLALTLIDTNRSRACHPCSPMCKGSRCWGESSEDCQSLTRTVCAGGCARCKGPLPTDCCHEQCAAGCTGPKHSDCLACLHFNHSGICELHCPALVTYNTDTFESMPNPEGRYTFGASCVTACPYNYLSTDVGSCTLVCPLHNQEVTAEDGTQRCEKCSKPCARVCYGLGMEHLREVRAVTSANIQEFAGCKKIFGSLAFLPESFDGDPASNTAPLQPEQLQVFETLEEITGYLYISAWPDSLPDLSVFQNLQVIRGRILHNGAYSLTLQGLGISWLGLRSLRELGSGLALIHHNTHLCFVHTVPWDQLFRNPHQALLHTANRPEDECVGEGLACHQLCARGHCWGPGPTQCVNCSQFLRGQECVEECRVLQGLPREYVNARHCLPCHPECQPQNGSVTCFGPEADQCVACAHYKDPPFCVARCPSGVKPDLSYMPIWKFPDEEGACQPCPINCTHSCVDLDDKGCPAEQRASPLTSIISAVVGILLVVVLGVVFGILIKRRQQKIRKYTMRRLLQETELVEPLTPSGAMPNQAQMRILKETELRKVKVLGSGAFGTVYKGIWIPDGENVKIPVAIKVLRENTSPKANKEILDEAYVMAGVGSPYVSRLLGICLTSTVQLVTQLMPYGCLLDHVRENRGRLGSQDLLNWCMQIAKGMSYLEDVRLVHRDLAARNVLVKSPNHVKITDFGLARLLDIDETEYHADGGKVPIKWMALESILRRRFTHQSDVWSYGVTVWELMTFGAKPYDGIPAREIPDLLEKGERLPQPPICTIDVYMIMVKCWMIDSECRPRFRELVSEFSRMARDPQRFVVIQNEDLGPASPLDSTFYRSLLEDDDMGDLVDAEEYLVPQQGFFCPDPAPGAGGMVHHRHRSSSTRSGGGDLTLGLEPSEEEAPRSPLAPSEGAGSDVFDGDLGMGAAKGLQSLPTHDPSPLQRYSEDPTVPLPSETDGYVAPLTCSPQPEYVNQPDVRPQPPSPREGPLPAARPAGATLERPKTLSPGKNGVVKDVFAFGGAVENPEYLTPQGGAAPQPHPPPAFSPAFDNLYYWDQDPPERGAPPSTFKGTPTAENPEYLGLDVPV
Chain of HER2YVMA (P04626 with tags, fused parts or gaps INS775YVMA): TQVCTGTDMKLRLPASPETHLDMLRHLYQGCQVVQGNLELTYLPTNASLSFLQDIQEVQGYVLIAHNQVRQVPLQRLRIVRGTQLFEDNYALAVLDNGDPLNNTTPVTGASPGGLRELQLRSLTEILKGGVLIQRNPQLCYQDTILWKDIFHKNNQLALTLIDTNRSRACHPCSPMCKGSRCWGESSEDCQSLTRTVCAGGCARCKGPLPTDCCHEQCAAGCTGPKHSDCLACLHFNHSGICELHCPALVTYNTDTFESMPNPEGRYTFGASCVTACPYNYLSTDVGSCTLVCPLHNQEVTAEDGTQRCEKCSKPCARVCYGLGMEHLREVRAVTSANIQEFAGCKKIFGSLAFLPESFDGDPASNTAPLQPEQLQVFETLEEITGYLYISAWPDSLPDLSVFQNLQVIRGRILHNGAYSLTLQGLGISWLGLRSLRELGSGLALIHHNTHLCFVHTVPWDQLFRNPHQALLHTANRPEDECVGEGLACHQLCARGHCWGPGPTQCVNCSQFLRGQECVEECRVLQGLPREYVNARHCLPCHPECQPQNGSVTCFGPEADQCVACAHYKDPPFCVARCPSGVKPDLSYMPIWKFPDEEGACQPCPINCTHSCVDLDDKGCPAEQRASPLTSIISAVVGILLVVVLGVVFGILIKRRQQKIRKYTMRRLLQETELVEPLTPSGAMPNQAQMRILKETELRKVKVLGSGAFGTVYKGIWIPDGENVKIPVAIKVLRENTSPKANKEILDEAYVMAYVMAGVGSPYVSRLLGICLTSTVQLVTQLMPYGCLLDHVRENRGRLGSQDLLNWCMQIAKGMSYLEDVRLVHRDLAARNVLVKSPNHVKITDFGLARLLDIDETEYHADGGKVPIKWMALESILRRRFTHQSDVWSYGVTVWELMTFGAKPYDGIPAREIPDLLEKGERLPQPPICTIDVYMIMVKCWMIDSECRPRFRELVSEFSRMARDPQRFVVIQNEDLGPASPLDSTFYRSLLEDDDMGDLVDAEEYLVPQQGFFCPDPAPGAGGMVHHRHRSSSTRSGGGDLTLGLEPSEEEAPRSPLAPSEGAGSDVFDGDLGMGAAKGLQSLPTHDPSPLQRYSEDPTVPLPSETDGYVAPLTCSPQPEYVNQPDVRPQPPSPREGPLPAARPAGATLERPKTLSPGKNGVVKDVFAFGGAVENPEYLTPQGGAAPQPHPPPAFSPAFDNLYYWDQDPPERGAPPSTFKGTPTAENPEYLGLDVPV

SMILES	EC50 [1]	IC50 [2]
Cc1ccc(Oc2ccc(Nc3ncnc4sc5c(c34)C[C@@H](C)N(C(=O)/C=C/CN(C)C)[C@H]5C)cc2C)cn1 (racemic) [Compound 149, (E)-1-(6,8-cis-dimethyl-4-((3-methyl-4-((6-methylpyridin-3-yl)oxy)phenyl)amino)-5,8-dihydropyrido[4′,3′:4,5]thieno[2,3-d]pyrimidin-7(6H)-yl)-4-(dimethylamino)but-2-en-1-one]	< 100 nM	< 100 nM
Cc1ccc(Oc2ccc(Nc3ncnc4sc5c(c34)C[C@@H](C)N(C(=O)/C=C/CN(C)C)[C@@H]5C)cc2C)cn1 (racemic) [Compound 165, (E)-1-(6,8-trans-dimethyl-4-((3-methyl-4-((6-methylpyridin-3-yl)oxy)phenyl)amino)-5,8-dihydropyrido[4′,3′:4,5]thieno[2,3-d]pyrimidin-7(6H)-yl)-4-(dimethylamino)but-2-en-1-one]	< 100 nM	100 to 1000 nM
C=CC(=O)N1[C@H](C)Cc2c(sc3ncnc(Nc4ccc(Oc5ccc(C)nc5)c(C)c4)c23)[C@H]1C (racemic) [Compound 166, 1-(6,8-trans-dimethyl-4-((3-methyl-4-((6-methylpyridin-3-yl)oxy)phenyl)amino)-5,8-dihydropyrido[4′,3′:4,5]thieno[2,3-d]pyrimidin-7(6H)-yl)prop-2-en-1-one]	< 100 nM	100 to 1000 nM
C=CC(=O)N1Cc2sc3ncnc(Nc4ccc(Oc5ccc(C)nc5)c(C)c4)c3c2C(C)C1 (single isomer, unassigned) [Compound 145]	< 100 nM	< 100 nM
C=CC(=O)N1Cc2sc3ncnc(Nc4ccc(Oc5ccc(C)nc5)c(C)c4)c3c2C(C)C1 (single isomer, unassigned) [Compound 146]	< 100 nM	< 100 nM
Cc1ccc(Oc2ccc(Nc3ncnc4sc5c(c34)C(C)N(C(=O)C=CCN(C)C)C5)cc2C)cn1 (single isomer, unassigned) [Compound 147]	< 100 nM	< 100 nM
Cc1ccc(Oc2ccc(Nc3ncnc4sc5c(c34)C(C)N(C(=O)C=CCN(C)C)C5)cc2C)cn1 (single isomer, unassigned) [Compound 148]	100 to 350 nM	1000 to 10000 nM
COc1ccc(Oc2ccc(Nc3ncnc4sc5c(c34)C(C)CN(C(=O)C=CCN(C)C)C5)cc2C)cn1 (single isomer, unassigned) [Compound 159]	< 100 nM	100 to 1000 nM
COc1ccc(Oc2ccc(Nc3ncnc4sc5c(c34)C(C)CN(C(=O)C=CCN(C)C)C5)cc2C)cn1 (single isomer, unassigned) [Compound 160]	< 100 nM	< 100 nM
Cc1ccc(Oc2ccc(Nc3ncnc4sc5c(c34)CC(C)N(C(=O)C=CCN(C)C)C5C)cc2C)cn1 (single isomer, unassigned) [Compound 161]	< 100 nM	< 100 nM
Cc1ccc(Oc2ccc(Nc3ncnc4sc5c(c34)CC(C)N(C(=O)C=CCN(C)C)C5C)cc2C)cn1 (single isomer, unassigned) [Compound 162]	100 to 350 nM	1000 to 10000 nM
Cc1ccc(Oc2ccc(Nc3ncnc4sc5c(c34)CN(C(=O)C=CCN(C)C)C5C)cc2C)cn1 (single isomer, unassigned) [Compound 169]	< 100 nM	< 100 nM
Cc1ccc(Oc2ccc(Nc3ncnc4sc5c(c34)CN(C(=O)C=CCN(C)C)C5C)cc2C)cn1 (single isomer, unassigned) [Compound 170]	350 to 1000 nM	1000 to 10000 nM
Cc1ccc(Oc2ccc(Nc3ncnc4sc5c(c34)C(C)CN(C(=O)C=CCN3CCOCC3)C5)cc2C)cn1 (single isomer, unassigned) [Compound 176]	< 100 nM	100 to 1000 nM
Cc1ccc(Oc2ccc(Nc3ncnc4sc5c(c34)C(C)CN(C(=O)C=CCN3CCOCC3)C5)cc2C)cn1 (single isomer, unassigned) [Compound 177]	< 100 nM	< 100 nM
Cc1ccc(Oc2ccc(Nc3ncnc4sc5c(c34)C(C)CN(C(=O)C=CCN(C)C(C)(C)C)C5)cc2C)cn1 (single isomer, unassigned) [Compound 178]	< 100 nM	100 to 1000 nM

Reference: patent US20240391931A1 (Bristol-Myers Squibb Company, priority 2021, published 2024)
